IC50 and inhibition data for 19 compounds are collected here from patent publication EP1801112A1, “Bicyclic pyrimidines and bicyclic 3,4-dihydropyrimidines as inhibitors of cellular proliferation” (Warner-Lambert Company LLC, priority 1998, dated 1999).

pIC50: −log10 of the molar value. Where two headings read alike, the source gives them in different places.

What all share (assay type): biochemical
For one test, the target named is cdc2/cyclinB (Homo sapiens, UniProt P06493). As to the kind of experiment: Cyclin-Dependent Kinase Assay cdc2/cyclinB. The following applies: for IC50: retinoblastoma substrate, read-out: IC50 (µM) cdkl/B. How it is done: (§1) Cyclin-Dependent Kinase Assays (cdk2/cyclinE, cdk2/cyclinA, cdc2/cyclinB)
(§2) All components except the ATP were added to the wells, and the plate was placed on a plate mixer for 2 minutes. The reaction was begun by addition of [^32P]ATP, and the plate was incubated at 25°C for 15 minutes. The reaction was terminated by addition of 0.1 mL of 20% TCA. The plate was kept at 4°C for at least 1 hour to allow the substrate to precipitate. The wells were then washed five times with 0.2 mL of 10% TCA and ^32P incorporation determined with a beta plate counter (Wallac Inc., Gaithersburg, MD).

A further test concerns the target cdk2/cyclinA (Homo sapiens, UniProt P24941). As to the kind of experiment: Cyclin-Dependent Kinase Assay cdk2/cyclinA. The following applies: for IC50: retinoblastoma substrate, read-out: IC50 (µM) cdk2/A. On the procedure:
as §1, §2

In a further test the target is cdk4/D (Homo sapiens, UniProt P11802). As to the kind of experiment: Cyclin-Dependent Kinase 4 (cdk4) Assay. Particulars: for IC50: 25 µM ATP, retinoblastoma substrate, read-out: IC50 (µM) cdk4/D. How it is done: A typical assay, for instance, measures inhibitory activity against the cyclin D dependent kinase 4 enzyme (cdk4/D). […] The cdk4 assay was carried out as follows.
Cyclin-Dependent Kinase 4 (cdk4) Assay
Enzyme assays for IC50 determinations (Tables 1 and 2) and kinetic evaluation were performed in 96 well filter plates (Millipore MADVN6550). The total volume was 0.1 mL containing a final concentration of 20 mM TRIS (tris[hydroxymethyl]aminomethane), at pH 7.4, 50 mM NaCl, 1 mM dithiothreitol, 10 mM MgCl2, 25 µM ATP containing 0.25 µCi of [^32P]ATP, 20 ng of cdk4, 1 µg of retinoblastoma, and appropriate dilutions of a compound of the present invention. All components except the ATP were added to the wells, and the plate was placed on a plate mixer for 2 minutes. The reaction was started by adding [^32P]ATP and the plate was incubated at 25°C for 15 minutes. The reaction was terminated by addition of 0.1 mL of 20% trichloroacetic acid (TCA). The plate was kept at 4°C for at least 1 hour to allow the substrate to precipitate. The wells were then washed five times with 0.2 mL of 10% TCA and ^32P incorporation was determined with a beta plate counter (Wallac Inc., Gaithersburg, MD).

Another test deals with cdk2/cyclinE (Homo sapiens, UniProt P24941). As to the kind of experiment: Cyclin-Dependent Kinase Assay cdk2/cyclinE. The following applies: for IC50: retinoblastoma substrate, read-out: IC50 (µM) cdk2/E. How it is done: as §1, §2
In test [1] the target is T1, FGF-1 (flg) receptor tyrosine kinase (Homo sapiens, UniProt P11362).
T1 construct: amplify a fragment of DNA that codes for the intracellular tyrosine kinase domain; made in house; host or cells: SF9 insect cells (baculovirus); crude cell lysate used
As to the kind of experiment: FGF Receptor Tyrosine Kinase Assay. The following applies: glutamate-tyrosine co-polymer substrate, 50 µM ATP. On the procedure: PDGF and FGF Receptor Tyrosine Kinase Assays
PCR primers were designed to amplify a fragment of DNA that codes for the intracellular tyrosine kinase domain. The fragment was inserted into a baculovirus vector, cotransfected with AcMNPV DNA, and the recombinant virus isolated. SF9 insect cells were infected with the virus to overexpress the protein, and the cell lysate was used for the assay. Assays were performed in 96-well plates (100 µL/incubation/well), and conditions were optimized to measure the incorporation of ^32P from γ^32P-ATP into a glutamate-tyrosine co-polymer substrate. Briefly, to each well was added 82.5 µL of incubation buffer containing 25 mM Hepes (pH 7.0), 150 mM NaCl, 0.1% Triton X-100, 0.2 mM PMSF, 0.2 mM Na3VO4, 10 mM MnCl2, and 750 µg/mL of Poly (4:1) glutamate-tyrosine followed by 2.5 µL of inhibitor and 5 µL of enzyme lysate (7.5 µg/µL FGF-TK or 6.0 µg/µL PDGF-TK) to initiate the reaction. […] The reaction was terminated by the addition of 100 µL of 30% trichloroacetic acid (TCA) containing 20 mM sodium pyrophosphate and precipitation of material onto glass fiber mats (Wallac). […] Nonspecific activity was defined as radioactivity retained on the filters following incubation of samples with buffer alone (no enzyme). Specific enzymatic activity (enzyme plus buffer) was defined as total activity minus nonspecific activity. […]

T1 sequence (P11362 478-767 limits assumed): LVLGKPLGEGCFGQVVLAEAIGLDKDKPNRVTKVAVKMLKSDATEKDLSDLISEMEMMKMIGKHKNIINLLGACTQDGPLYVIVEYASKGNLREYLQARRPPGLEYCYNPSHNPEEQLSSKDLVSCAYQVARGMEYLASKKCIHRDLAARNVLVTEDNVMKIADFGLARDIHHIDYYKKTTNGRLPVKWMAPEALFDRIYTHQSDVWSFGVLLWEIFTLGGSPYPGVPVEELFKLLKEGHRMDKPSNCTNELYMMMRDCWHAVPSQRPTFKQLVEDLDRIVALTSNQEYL
Chain of cdk4/D (P11802 whole entry): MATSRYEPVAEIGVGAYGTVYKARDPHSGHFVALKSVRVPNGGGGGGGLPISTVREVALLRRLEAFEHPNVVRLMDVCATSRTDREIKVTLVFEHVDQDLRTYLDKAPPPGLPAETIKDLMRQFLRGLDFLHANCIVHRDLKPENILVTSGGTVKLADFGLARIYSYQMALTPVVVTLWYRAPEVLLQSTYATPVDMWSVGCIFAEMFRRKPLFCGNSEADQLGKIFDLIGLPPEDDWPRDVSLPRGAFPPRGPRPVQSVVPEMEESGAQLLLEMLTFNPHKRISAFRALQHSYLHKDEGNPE
Chain of cdk4/D (P24385 whole entry, further chain): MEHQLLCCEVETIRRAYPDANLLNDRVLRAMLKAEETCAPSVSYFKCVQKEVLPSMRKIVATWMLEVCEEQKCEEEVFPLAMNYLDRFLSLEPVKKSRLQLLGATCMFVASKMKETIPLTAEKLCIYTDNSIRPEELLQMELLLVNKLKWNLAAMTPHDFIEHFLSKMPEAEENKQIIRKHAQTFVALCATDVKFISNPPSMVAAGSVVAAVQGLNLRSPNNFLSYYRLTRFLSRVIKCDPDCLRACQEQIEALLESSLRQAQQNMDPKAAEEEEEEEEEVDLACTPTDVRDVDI
Chain of cdc2/cyclinB (P06493 whole entry): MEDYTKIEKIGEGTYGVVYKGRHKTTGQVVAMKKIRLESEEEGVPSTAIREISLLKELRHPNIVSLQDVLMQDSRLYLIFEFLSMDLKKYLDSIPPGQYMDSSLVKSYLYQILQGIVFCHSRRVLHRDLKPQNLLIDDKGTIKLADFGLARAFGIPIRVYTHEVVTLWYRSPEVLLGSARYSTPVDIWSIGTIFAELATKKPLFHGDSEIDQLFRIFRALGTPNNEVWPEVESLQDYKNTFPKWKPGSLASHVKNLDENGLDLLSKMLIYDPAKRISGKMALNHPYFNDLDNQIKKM
Chain of cdc2/cyclinB (P14635 whole entry, further chain): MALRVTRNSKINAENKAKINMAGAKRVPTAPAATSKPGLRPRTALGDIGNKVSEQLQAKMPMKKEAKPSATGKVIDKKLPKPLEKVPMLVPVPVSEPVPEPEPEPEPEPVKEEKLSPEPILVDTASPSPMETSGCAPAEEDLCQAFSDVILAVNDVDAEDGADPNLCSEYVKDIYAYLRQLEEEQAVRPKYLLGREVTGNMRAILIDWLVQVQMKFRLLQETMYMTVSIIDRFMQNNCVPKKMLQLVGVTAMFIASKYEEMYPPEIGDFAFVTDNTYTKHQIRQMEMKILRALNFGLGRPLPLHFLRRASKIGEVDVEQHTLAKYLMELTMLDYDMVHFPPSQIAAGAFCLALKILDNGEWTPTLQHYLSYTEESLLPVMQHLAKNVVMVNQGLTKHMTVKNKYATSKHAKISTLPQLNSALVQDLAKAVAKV

`O=c1ncc2cnc(Nc3ccc(N4CCC(O)CC4)cc3)nc2n1C1CCCC1` [Example 33, 1-Cyclopentyl-7-[4-(4-hydroxypiperidin-1-yl)phenylamino]pyrimido[4,5-d]pyrimidin-2(1H)-one]: the IC50 is 9.76 µM on cdc2/cyclinB, 0.98 µM at cdk2/cyclinA, 0.038 µM on cdk4/D and 4.2 µM at cdk2/cyclinE.
With `CCN(CC)CCOc1ccc(Nc2ncc3cnc(=O)n(C4CCCC4)c3n2)cc1C` [Example 34, 1-Cyclopentyl-7-{3-methyl-4-[2-(diethylamino)ethoxy]-phenylamino}pyrimido[4,5-d]pyrimidin-2(1H)-one], the pIC50 is 5.12 against cdc2/cyclinB, 5.49 against cdk2/cyclinA, 7.10 against cdk4/D and 5.50 on cdk2/cyclinE.
The compound `CCN(CC)CCOc1ccc(Nc2ncc3c(n2)N(C2CCCC2)C(=O)NC3)cc1C` [Example 13, 1-Cyclopentyl-7-{3-methyl-4-[2-(diethylamino)ethoxy]phenylamino}-3,4-dihydro-pyrimido[4,5-d]pyrimidin-2(1H)-one] showed a negative logarithm of the IC50 (pIC50) at cdk4/D of 6.52. The IC50 in test [1] was 0.05 to 0.5 µM.
Turning to `CC(C)N1C(=O)NCc2cnc(Nc3ccc(N4CCC(N(C)C)CC4)cc3)nc21` [Example 24, 7-{4-[4-(Dimethylamino)piperidin-1-yl]phenylamino}-1-isopropyl-3,4-dihydro-pyrimido[4,5-d]pyrimidin-2(1H)-one; compound with trifluoroacetic acid], the pIC50 against cdc2/cyclinB was < 4.40; at cdk2/cyclinA, 4.91; against cdk2/cyclinE, 4.47.
As for `CN1CCN(c2ccc(Nc3ncc4c(n3)N(C)C(=O)NC4)cc2)CC1` [Example 28, 1-Methyl-7-[4-(4-methylpiperazin-1-yl)phenylamino]-3,4-dihydropyrimido[4,5-d]pyrimidin-2(1H)-one; compound with trifluoroacetic acid], the pIC50 against cdc2/cyclinB and against cdk2/cyclinA was < 4.40 in each case.
In the case of `COc1ccc(Nc2ncc3cnc(=O)n(C4CCCC4)c3n2)cc1` [Example 37, 1-Cyclopentyl-7-(4-methoxyphenylamino)pyrimido[4,5-d]pyrimidin-2(1H)-one], the pIC50 against cdc2/cyclinB is 5.32; against cdk2/cyclinA, 6.40; against cdk4/D it was 6.66; at cdk2/cyclinE it was 6.05.
Turning to `COc1ccc(Nc2ncc3c(n2)N(C2CCCC2)C(=O)NC3)cc1` [Example 9, 1-Cyclopentyl-7-(4-methoxyphenylamino)-3,4-dihydro-pyrimido[4,5-d]pyrimidin-2(1H)-one], at cdk4/D, the pIC50 is 5.24. Moreover, the IC50 in test [1] is 0.36 µM.
`O=c1ncc2cnc(Nc3ccc(N4CCCCC4)cc3)nc2n1C1CCCC1` [Example 38, 1-Cyclopentyl-7-[4-(piperidin-1-yl)phenylamino]pyrimido[4,5-d]pyrimidin-2(1H)-one]: the IC50 was 35.2 µM at cdc2/cyclinB, 0.77 µM on cdk2/cyclinA, 0.15 µM at cdk4/D and 2.78 µM on cdk2/cyclinE.
In the case of `O=C1NCc2cnc(Nc3ccc(N4CCC(CCCO)CC4)cc3)nc2N1C1CCCC1` [Example 20, 1-Cyclopentyl-7-{4-[4-(3-hydroxypropyl)piperidin-1-yl]phenylamino}-3,4-dihydro-pyrimido[4,5-d]pyrimidin-2(1H)-one], the negative-log IC50 (pIC50) is < 4.40 on cdc2/cyclinB, 5.57 against cdk2/cyclinA, 6.38 at cdk4/D and 5.27 against cdk2/cyclinE.
Take `CC(C)n1c(=O)ncc2cnc(Nc3ccc(-n4cccn4)cc3)nc21` [Example 42, 1-Isopropyl-7-[4-(pyrazol-1-yl)phenylamino]pyrimido[4,5-d]pyrimidin-2(1H)-one]: the pIC50 on cdc2/cyclinB was < 4.40; against cdk2/cyclinA, 5.24; against cdk4/D it was 5.41; at cdk2/cyclinE, < 4.40.
On to `CN1C(=O)NCc2cnc(Nc3ccc(N4CCC(O)CC4)cc3)nc21` [Example 29, 7-[4-(4-Hydroxypiperidin-1-yl)phenylamino]-1-methyl-3,4-dihydropyrimido[4,5-d]pyrimidin-2(1H)-one; compound with trifluoroacetic acid], for which the pIC50 at cdc2/cyclinB, against cdk2/cyclinA and against cdk4/D was < 4.40 each time.
As to `Cn1c(=O)ncc2cnc(Nc3ccc(-n4cccn4)cc3)nc21` [Example 47, 1-Methyl-7-[4-(pyrazol-1-yl)phenylamino]pyrimido[4,5-d]pyrimidin-2(1H)-one], the pIC50 at cdc2/cyclinB, against cdk2/cyclinA and at cdk4/D was < 4.40 in each case.
Take `CN(C)C1CCN(c2ccc(Nc3ncc4cnc(=O)n(C)c4n3)cc2)CC1` [Example 46, 7-{4-[4-(Dimethylamino)piperidin-1-yl]phenylamino}-1-methyl-pyrimido[4,5-d]pyrimidin-2(1H)-one]: the pIC50 against cdc2/cyclinB, against cdk2/cyclinA and at cdk4/D was < 4.40 throughout. Besides, the IC50 in test [1] was 22.6 µM.
As for `CC(C)N1C(=O)NCc2cnc(Nc3ccc(N4CCC(CCCN5CCOCC5)CC4)cc3)nc21` [Example 26, 1-Isopropyl-7-{4-[4-(3-(morpholin-1-yl)propyl)piperidin-1-yl]phenylamino}-3,4-dihydro-pyrimido[4,5-d]pyrimidin-2(1H)-one], the inhibition at 40 µM on cdk4/D (read-out: % Inhibition at 40 µM cdk4/D) turned out to be 47%.
Regarding `CC(C)N1C(=O)NCc2cnc(Nc3ccc(N4CCC(O)CC4)cc3)nc21` [Example 23, 7-[4-(4-Hydroxypiperidin-1-yl)phenylamino]-1-isopropyl-3,4-dihydropyrimido[4,5-d]pyrimidin-2(1H)-one], the values for the pIC50 against cdc2/cyclinB, at cdk2/cyclinA and against cdk2/cyclinE were < 4.40, 5.36 and 4.77, respectively.
On to `CN1C(=O)NCc2cnc(Nc3ccc(-n4cccn4)cc3)nc21` [Example 31, 1-Methyl-7-[4-(pyrazol-1-yl)phenylamino]-3,4-dihydro-pyrimido[4,5-d]pyrimidin-2(1H)-one; compound with trifluoroacetic acid], for which the pIC50 on cdc2/cyclinB and against cdk2/cyclinA was < 4.40 in each case.
For the compound `CC(C)N1C(=O)NCc2cnc(Nc3ccc(-n4cccn4)cc3)nc21` [Example 25, 1-Isopropyl-7-[4-(pyrazol-1-yl)phenylamino]-3,4-dihydro-pyrimido[4,5-d]pyrimidin-2(1H)-one; compound with trifluoroacetic acid], the pIC50 was 4.44 at cdc2/cyclinB, 5.64 at cdk2/cyclinA and 5.00 at cdk2/cyclinE.
Take `CN1CCN(c2ccc(Nc3ncc4cnc(=O)n(C)c4n3)cc2)CC1` [Example 45, 1-Methyl-7-[4-(4-methylpiperazin-1-yl)phenylamino]pyrimido[4,5-d]pyrimidin-2(1H)-one]: the pIC50 at cdc2/cyclinB was < 4.40; against cdk2/cyclinA, < 4.40; against cdk4/D, 4.79.
In the case of `CN1C(=O)NCc2cnc(Nc3ccc(N4CCC(N(C)C)CC4)cc3)nc21` [Example 30, 7-{4-[4-(Dimethylamino)piperidin-1-yl]phenylamino}-1-methyl-3,4-dihydropyrimido[4,5-d]pyrimidin-2(1H)-one; compound with trifluoroacetic acid], the results for the negative logarithm of the IC50 (pIC50) at cdc2/cyclinB, on cdk2/cyclinA and at cdk4/D were < 4.40, < 4.40 and 4.74, respectively.

As a reminder, the pIC50 is −log10 of the IC50, conventionally taken in molar units. The low end stands for a high IC50, the high end for a low IC50.
